Molecular target: full-length TDP-43 (TDP-43) (Homo sapiens, UniProt Q13148)
Assay: isothermal titration calorimetry
Assay type: binding

Sequence of full-length TDP-43 (TDP-43) (Q13148 whole entry): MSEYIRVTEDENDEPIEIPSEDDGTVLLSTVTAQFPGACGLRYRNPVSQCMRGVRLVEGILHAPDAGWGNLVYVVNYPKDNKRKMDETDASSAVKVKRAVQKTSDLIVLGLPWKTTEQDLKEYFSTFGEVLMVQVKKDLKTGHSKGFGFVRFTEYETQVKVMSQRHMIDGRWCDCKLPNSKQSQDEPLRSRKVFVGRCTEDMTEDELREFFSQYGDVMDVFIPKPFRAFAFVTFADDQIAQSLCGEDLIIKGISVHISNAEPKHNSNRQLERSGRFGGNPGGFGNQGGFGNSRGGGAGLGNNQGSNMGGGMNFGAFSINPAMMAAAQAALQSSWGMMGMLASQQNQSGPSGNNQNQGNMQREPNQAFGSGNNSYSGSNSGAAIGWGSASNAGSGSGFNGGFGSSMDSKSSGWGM

- Kd: 7.8 µM
Compound: O=C(O[C@@H]1Cc2c(O)cc(O)cc2O[C@@H]1c1cc(O)c(O)c(O)c1)c1cc(O)c(O)c(O)c1 [epigallocatechin gallate]
